What was measured:
NCI-H460 = assay: Anticancer activity against human NCI-H460 cells assessed as inhibition of cell growth incubated for 48 hrs by crystal violet staining based analysis; assay type: functional; settings: NCI-H460, 48 h
T-24 = assay: Anticancer activity against human T24 cells assessed as inhibition of cell growth incubated for 48 hrs by crystal violet staining based analysis; assay type: functional; settings: T-24, 48 h
[1] = molecular target: Serine/threonine-protein kinase PLK1 (Homo sapiens, UniProt P53350); assay: Binding affinity to recombinant PLK1 (unknown origin) assessed as dissociation constant by SPR analysis
Sequence of Serine/threonine-protein kinase PLK1 (P53350 whole entry): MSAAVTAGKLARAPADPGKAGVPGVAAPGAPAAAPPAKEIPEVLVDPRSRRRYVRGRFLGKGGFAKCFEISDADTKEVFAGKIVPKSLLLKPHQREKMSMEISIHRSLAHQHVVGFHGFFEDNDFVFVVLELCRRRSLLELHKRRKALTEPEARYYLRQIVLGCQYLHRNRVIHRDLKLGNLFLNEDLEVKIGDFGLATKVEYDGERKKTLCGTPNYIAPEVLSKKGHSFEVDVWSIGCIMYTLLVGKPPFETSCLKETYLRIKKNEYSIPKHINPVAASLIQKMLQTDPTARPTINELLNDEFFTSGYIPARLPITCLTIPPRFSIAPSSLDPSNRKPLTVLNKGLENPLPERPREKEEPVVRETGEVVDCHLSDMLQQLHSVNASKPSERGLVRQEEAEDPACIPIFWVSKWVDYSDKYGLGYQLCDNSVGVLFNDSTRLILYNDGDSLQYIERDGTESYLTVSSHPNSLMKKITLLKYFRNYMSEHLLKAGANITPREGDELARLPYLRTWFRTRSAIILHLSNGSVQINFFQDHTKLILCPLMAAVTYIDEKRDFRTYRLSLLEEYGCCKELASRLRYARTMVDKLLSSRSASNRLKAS

MCF7 = assay: Anticancer activity against human MCF7 cells assessed as inhibition of cell growth incubated for 48 hrs by crystal violet staining based analysis; assay type: functional; settings: MCF7, 48 h
MGC-803 = assay: Anticancer activity against human MGC-803 cells assessed as inhibition of cell growth incubated for 48 hrs by crystal violet staining based analysis; assay type: functional; settings: MGC-803, 48 h
SK-OV-3 = assay: Anticancer activity against human SK-OV-3 cells assessed as inhibition of cell growth incubated for 48 hrs by crystal violet staining based analysis; assay type: functional; settings: SK-OV-3, 48 h
A549/CDDP = assay: Anticancer activity against human A549/DDP cells assessed as inhibition of cell growth incubated for 48 hrs by crystal violet staining based analysis; assay type: functional
[2] = Octanol-water partition coefficient, logP of the compound; assay type: physicochemical

Structure (SMILES)	IC50 (NCI-H460) [µM]	Kd [1] [µM]	IC50 (MCF7) [µM]	IC50 (MGC-803) [µM]	IC50 (SK-OV-3) [µM]	IC50 (A549/CDDP) [µM]	logP [2]	IC50 (T-24) [µM]
CN(C)CCN1C(=O)c2cccc3c(S(=O)(=O)NCc4ccc(C(F)(F)F)cc4)ccc(c23)C1=O	8.28	5.26	6.24	5.95	7.42	–	–	2.57
Cc1ccc(CNS(=O)(=O)c2ccc3c4c(cccc24)C(=O)N(CCN(C)C)C3=O)cc1	12.5	14.2	10.5	7.4	6.64	–	–	5.89
CN(C)CCN1C(=O)c2cccc3c(S(=O)(=O)NCc4ccccc4)ccc(c23)C1=O	11.5	16.8	14.7	3.71	1.8	–	–	7.11
CN(C)CCN1C(=O)c2cccc3c(S(=O)(=O)NCc4cccc(F)c4)ccc(c23)C1=O	9.77	17.5	7.29	4.98	3.11	–	–	2.97
CC[C@@H]1C(=O)N(C)c2cnc(Nc3ccc(C(=O)N[C@H]4CC[C@H](N5CCN(CC6CC6)CC5)CC4)cc3OC)nc2N1C(C)C [VOLASERTIB]	–	0.9	–	–	–	–	–	–
O=C1c2cccc3c(S(=O)(=O)NCc4ccccc4)ccc(c23)C(=O)N1CCN1CCCCC1	8.17	2.03	15.4	5.16	12	–	–	2.75
CN(C)CCN1C(=O)c2cccc3c(S(=O)(=O)NCc4ccccc4F)ccc(c23)C1=O	10.8	2.79	5.38	5.46	2.95	–	–	3.86
O=C1c2cccc3c(Sc4ccc([N+](=O)[O-])cc4)ccc(c23)C(=O)N1CCN1CCCC1	15.6	15.4	10.8	11.2	12.2	> 20	4.26	9.23
COc1ccc(CNS(=O)(=O)c2ccc3c4c(cccc24)C(=O)N(CCN(C)C)C3=O)cc1	9.37	8.06	10.2	6.44	4.99	–	–	5.31

More lines, main results first:

IC50 (NCI-H460) [µM]	Kd [1] [µM]	IC50 (MCF7) [µM]	IC50 (MGC-803) [µM]	IC50 (SK-OV-3) [µM]	IC50 (A549/CDDP) [µM]	logP [2]	Structure (SMILES)	IC50 (T-24) [µM]
4.77	7.36	5.01	3.38	4.22	–	–	O=C1c2cccc3c(S(=O)(=O)NCc4ccc(C(F)(F)F)cc4)ccc(c23)C(=O)N1CCN1CCCC1	4.99
5	20.1	18.2	8.1	20.5	–	–	COc1ccc(CNS(=O)(=O)c2ccc3c4c(cccc24)C(=O)N(CCN2CCCCC2)C3=O)cc1	4.51
8.25	17.3	6.75	4.17	3.98	–	–	Cc1ccc(CNS(=O)(=O)c2ccc3c4c(cccc24)C(=O)N(CCN2CCCC2)C3=O)cc1	5.53
2.8	2.15	3.29	3.41	4.5	–	–	O=C1c2cccc3c(S(=O)(=O)NCc4ccc(F)cc4)ccc(c23)C(=O)N1CCN1CCCC1	2.51
4.8	20.9	4.55	7.29	10.7	–	–	Cc1ccc(CNS(=O)(=O)c2ccc3c4c(cccc24)C(=O)N(CCN2CCCCC2)C3=O)cc1	9.09
5.37	16.8	10.3	4.04	5.19	–	–	COc1ccc(CNS(=O)(=O)c2ccc3c4c(cccc24)C(=O)N(CCN2CCCC2)C3=O)cc1	8.6
17.6	19.2	10.3	4.96	7.05	–	–	O=C1c2cccc3c(S(=O)(=O)NCc4ccccc4)ccc(c23)C(=O)N1CCN1CCCC1	4.07
4.28	3.95	9.62	5.43	8.53	–	–	O=C1c2cccc3c(S(=O)(=O)NCc4ccc(F)cc4)ccc(c23)C(=O)N1CCN1CCCCC1	1.76
4.29	4.24	16.9	5.56	9.21	–	–	O=C1c2cccc3c(S(=O)(=O)NCc4ccc(C(F)(F)F)cc4)ccc(c23)C(=O)N1CCN1CCCCC1	8.19

Reference: ChEMBL document CHEMBL5550126, “Identification of naphthalimide-derivatives as novel PBD-targeted polo-like kinase 1 inhibitors with efficacy in drug-resistant lung cancer cells” (Eur J Med Chem, 2024)
